Test results: article PMC8319832, “Fine-Tuning of Alkaline Residues on the Hydrophilic Face Provides a Non-toxic Cationic α-Helical Antimicrobial Peptide Against Antibiotic-Resistant ESKAPE Pathogens” (Frontiers in Microbiology, 2021)
≈ marks a conversion by molar mass, not a printed value. Where a SMILES comes first, the peptide text is derived from it.

How the values were obtained:
[1] = tested on: human red blood cells (hRBCs); assay: Hemolytic activity determination; assay type: cell-based; details: hRBCs in 0.9% sodium chloride, 37°C, 1 h, OD540, 1% Triton X-100 = 100%, three independent experiments
Procedure: Fresh human red blood cells (hRBCs) were collected in a sterile borosilicate glass tube covered with sodium citrate as the anticoagulating agent. […] Two-fold dilutions of the peptides were prepared in 0.9% sodium chloride to 100 μl and mixed with equal volumn of hRBC suspension to final peptide concentrations ranging from 12.5 to 200 μg ml^–1. After co-incubation at 37°C for 1 h, the samples were centrifuged (2,000 × g, 4°C, 20 min), and the supernatant (100 μl) was taken for optical density (OD540) measurements (Asample). The hRBCs assayed with 0.9% sodium chloride (Ablank) or 1% Triton X-100 (Apositive) were applied as 0% and 100% hemolysis, respectively. Three independent experiments were performed and the percent hemolysis was calculated according to the following equation ([Yin et al., 2012]; [Li et al., 2016]):
Hemolysis(%)=100*(Asample-Ablank)/(Apositive-Ablank)

S. aureus ATCC29213 = assay: MIC, broth dilution; assay type: cell-based, Staphylococcus aureus; details: CLSI broth dilution, MHB, 6.25 × 10^5 cfu per ml, 37°C, 20 h, OD630, at least three repeats
Procedure: All experiments were repeated at least three times.
To study the influence of physiological ions on the antimicrobial activities of the peptides, The MICs of the peptides were also determined against the standard bacterial strains cultured in MHB containing various salts at their physiological concentrations (150 mM NaCl, 4.5 mM KCl, 1 mM MgCl2, 2 mM CaCl2, 6 μM NH4HCO3, and 4 μM FeCl3) ([Ma et al., 2016]).

E. coli ATCC25922 = assay: MIC, broth dilution; assay type: cell-based, Escherichia coli; details: CLSI broth dilution, MHB, 6.25 × 10^5 cfu per ml, 37°C, 20 h, OD630, at least three repeats

SMILES | percent hRBC hemolysis ([1]; peptide 25 μg ml^–1) | MIC (S. aureus ATCC29213) | MIC (E. coli ATCC25922) | percent hRBC hemolysis ([1]; peptide 100 μg ml^–1)
CC[C@H](C)[C@H](NC(=O)[C@H](CCCNC(=N)N)NC(=O)CNC(=O)[C@@H](NC(=O)[C@@H](N)Cc1ccccc1)[C@@H](C)CC)C(=O)N[C@@H](C)C(=O)N[C@@H](CCCNC(=N)N)C(=O)N[C@@H](CC(C)C)C(=O)N[C@@H](CC(C)C)C(=O)N[C@@H](CCCNC(=N)N)C(=O)N[C@@H](CCCCN)C(=O)N[C@H](C(=O)N[C@@H](Cc1ccccc1)C(N)=O)[C@@H](C)CC [Kn2(A4R_S10R)] (H-FIGRIARLLRKIF-NH2) | 18.0% | 10 mg/L (≈ 6.24 µM) | 20 mg/L (≈ 12.5 µM) | –
CC[C@H](C)[C@H](NC(=O)[C@H](CCCCN)NC(=O)[C@H](CCCCN)NC(=O)[C@@H](NC(=O)[C@@H](N)Cc1ccccc1)[C@@H](C)CC)C(=O)N[C@@H](C)C(=O)N[C@@H](CCCCN)C(=O)N[C@@H](CC(C)C)C(=O)N[C@@H](CC(C)C)C(=O)N[C@@H](CCCNC(=N)N)C(=O)N[C@@H](CCCCN)C(=O)N[C@H](C(=O)N[C@@H](Cc1ccccc1)C(N)=O)[C@@H](C)CC [Kn2-7(R4K_R7K)] (H-FIKKIAKLLRKIF-NH2) | – | 5 mg/L (≈ 3.09 µM) | 10 mg/L (≈ 6.18 µM) | –
CC[C@H](C)[C@H](NC(=O)[C@H](C)NC(=O)[C@H](CCCCN)NC(=O)[C@@H](NC(=O)[C@@H](N)Cc1ccccc1)[C@@H](C)CC)C(=O)N[C@@H](C)C(=O)N[C@@H](CCCNC(=N)N)C(=O)N[C@@H](CC(C)C)C(=O)N[C@@H](CC(C)C)C(=O)N[C@@H](CO)C(=O)N[C@@H](CCCCN)C(=O)N[C@H](C(=O)N[C@@H](Cc1ccccc1)C(N)=O)[C@@H](C)CC [Kn2(G3K)] (H-FIKAIARLLSKIF-NH2) | 69.0% | 5 mg/L (≈ 3.29 µM) | 40 mg/L (≈ 26.3 µM) | –
CC[C@H](C)[C@H](NC(=O)[C@H](C)NC(=O)CNC(=O)[C@@H](NC(=O)[C@@H](N)Cc1ccccc1)[C@@H](C)CC)C(=O)N[C@@H](C)C(=O)N[C@@H](CCCNC(=N)N)C(=O)N[C@@H](CC(C)C)C(=O)N[C@@H](CC(C)C)C(=O)N[C@@H](CCCNC(=N)N)C(=O)N[C@@H](CCCCN)C(=O)N[C@H](C(=O)N[C@@H](Cc1ccccc1)C(N)=O)[C@@H](C)CC [Kn2(S10R)] (H-FIGAIARLLRKIF-NH2) | 50.9% | 10 mg/L (≈ 6.59 µM) | 20 mg/L (≈ 13.2 µM) | –
CC[C@H](C)[C@H](NC(=O)[C@H](CCCNC(=N)N)NC(=O)[C@H](CCCCN)NC(=O)[C@@H](NC(=O)[C@@H](N)Cc1ccccc1)[C@@H](C)CC)C(=O)N[C@@H](C)C(=O)N[C@@H](CCCCN)C(=O)N[C@@H](CC(C)C)C(=O)N[C@@H](CC(C)C)C(=O)N[C@@H](CCCNC(=N)N)C(=O)N[C@@H](CCCCN)C(=O)N[C@H](C(=O)N[C@@H](Cc1ccccc1)C(N)=O)[C@@H](C)CC [Kn2-7(R7K)] (H-FIKRIAKLLRKIF-NH2) | – | 5 mg/L (≈ 3.04 µM) | 20 mg/L (≈ 12.2 µM) | –
CC[C@H](C)[C@H](NC(=O)[C@H](CCCNC(=N)N)NC(=O)[C@H](CCCCN)NC(=O)[C@@H](NC(=O)[C@@H](N)Cc1ccccc1)[C@@H](C)CC)C(=O)N[C@@H](C)C(=O)N[C@@H](CCCCN)C(=O)N[C@@H](CC(C)C)C(=O)N[C@@H](CC(C)C)C(=O)N[C@@H](CCCCN)C(=O)N[C@@H](CCCCN)C(=O)N[C@H](C(=O)N[C@@H](Cc1ccccc1)C(N)=O)[C@@H](C)CC [Kn2-7(R7K_R10K)] (H-FIKRIAKLLKKIF-NH2) | – | 5 mg/L (≈ 3.09 µM) | 20 mg/L (≈ 12.4 µM) | –
CC[C@H](C)[C@H](NC(=O)[C@H](CCCNC(=N)N)NC(=O)[C@H](CCCNC(=N)N)NC(=O)[C@@H](NC(=O)[C@@H](N)Cc1ccccc1)[C@@H](C)CC)C(=O)N[C@@H](C)C(=O)N[C@@H](CCCNC(=N)N)C(=O)N[C@@H](CC(C)C)C(=O)N[C@@H](CC(C)C)C(=O)N[C@@H](CCCNC(=N)N)C(=O)N[C@@H](CCCCN)C(=O)N[C@H](C(=O)N[C@@H](Cc1ccccc1)C(N)=O)[C@@H](C)CC [Kn2-7(K3R)] (H-FIRRIARLLRKIF-NH2) | – | 5 mg/L (≈ 2.94 µM) | 20 mg/L (≈ 11.8 µM) | 89.3%
CC[C@H](C)[C@H](NC(=O)[C@H](CCCNC(=N)N)NC(=O)[C@H](CCCCN)NC(=O)[C@@H](NC(=O)[C@@H](N)Cc1ccccc1)[C@@H](C)CC)C(=O)N[C@@H](C)C(=O)N[C@@H](CCCNC(=N)N)C(=O)N[C@@H](CC(C)C)C(=O)N[C@@H](CC(C)C)C(=O)N[C@@H](CCCNC(=N)N)C(=O)N[C@@H](CCCNC(=N)N)C(=O)N[C@H](C(=O)N[C@@H](Cc1ccccc1)C(N)=O)[C@@H](C)CC [Kn2-7(K11R)] (H-FIKRIARLLRRIF-NH2) | – | 5 mg/L (≈ 2.94 µM) | 10 mg/L (≈ 5.88 µM) | –
CC[C@H](C)[C@H](NC(=O)[C@H](CCCNC(=N)N)NC(=O)[C@H](CCCCN)NC(=O)[C@@H](NC(=O)[C@@H](N)Cc1ccccc1)[C@@H](C)CC)C(=O)N[C@@H](C)C(=O)N[C@@H](CCCNC(=N)N)C(=O)N[C@@H](CC(C)C)C(=O)N[C@@H](CC(C)C)C(=O)N[C@@H](CCCCN)C(=O)N[C@@H](CCCCN)C(=O)N[C@H](C(=O)N[C@@H](Cc1ccccc1)C(N)=O)[C@@H](C)CC [Kn2-7(R10K)] (H-FIKRIARLLKKIF-NH2) | – | 5 mg/L (≈ 3.04 µM) | 5 mg/L (≈ 3.04 µM) | –
CC[C@H](C)[C@H](NC(=O)[C@H](C)NC(=O)[C@H](CCCCN)NC(=O)[C@@H](NC(=O)[C@@H](N)Cc1ccccc1)[C@@H](C)CC)C(=O)N[C@@H](C)C(=O)N[C@@H](CCCNC(=N)N)C(=O)N[C@@H](CC(C)C)C(=O)N[C@@H](CC(C)C)C(=O)N[C@@H](CCCNC(=N)N)C(=O)N[C@@H](CCCCN)C(=O)N[C@H](C(=O)N[C@@H](Cc1ccccc1)C(N)=O)[C@@H](C)CC [Kn2(G3K_S10R)] (H-FIKAIARLLRKIF-NH2) | 77.5% | 10 mg/L (≈ 6.3 µM) | 20 mg/L (≈ 12.6 µM) | –
CC[C@H](C)[C@H](NC(=O)[C@H](CCCNC(=N)N)NC(=O)CNC(=O)[C@@H](NC(=O)[C@@H](N)Cc1ccccc1)[C@@H](C)CC)C(=O)N[C@@H](C)C(=O)N[C@@H](CCCNC(=N)N)C(=O)N[C@@H](CC(C)C)C(=O)N[C@@H](CC(C)C)C(=O)N[C@@H](CO)C(=O)N[C@@H](CCCCN)C(=O)N[C@H](C(=O)N[C@@H](Cc1ccccc1)C(N)=O)[C@@H](C)CC [Kn2(A4R)] (H-FIGRIARLLSKIF-NH2) | 100% | 5 mg/L (≈ 3.26 µM) | 10 mg/L (≈ 6.52 µM) | –
CC[C@H](C)[C@H](NC(=O)[C@H](CCCCN)NC(=O)[C@H](CCCCN)NC(=O)[C@@H](NC(=O)[C@@H](N)Cc1ccccc1)[C@@H](C)CC)C(=O)N[C@@H](C)C(=O)N[C@@H](CCCNC(=N)N)C(=O)N[C@@H](CC(C)C)C(=O)N[C@@H](CC(C)C)C(=O)N[C@@H](CCCCN)C(=O)N[C@@H](CCCCN)C(=O)N[C@H](C(=O)N[C@@H](Cc1ccccc1)C(N)=O)[C@@H](C)CC [Kn2-7(R4K_R10K)] (H-FIKKIARLLKKIF-NH2) | – | 2.5 mg/L (≈ 1.55 µM) | 5 mg/L (≈ 3.09 µM) | –
CC[C@H](C)[C@H](NC(=O)[C@H](CCCCN)NC(=O)[C@H](CCCCN)NC(=O)[C@@H](NC(=O)[C@@H](N)Cc1ccccc1)[C@@H](C)CC)C(=O)N[C@@H](C)C(=O)N[C@@H](CCCNC(=N)N)C(=O)N[C@@H](CC(C)C)C(=O)N[C@@H](CC(C)C)C(=O)N[C@@H](CCCNC(=N)N)C(=O)N[C@@H](CCCCN)C(=O)N[C@H](C(=O)N[C@@H](Cc1ccccc1)C(N)=O)[C@@H](C)CC [Kn2-7(R4K)] (H-FIKKIARLLRKIF-NH2) | – | 5 mg/L (≈ 3.04 µM) | 5 mg/L (≈ 3.04 µM) | –
